From ChEMBL document CHEMBL1144373, “NMDA-NR2B subtype selectivity of stereoisomeric 2-(1,2,3,4-tetrahydro-1-isoquinolyl)ethanol derivatives” (Bioorg Med Chem Lett, 2005)

Experiments:
[1] = target: Glutamate [NMDA] receptor; experiment: Mean inhibitory constant against porcine N-methyl-D-aspartate (NMDA) glutamate receptor; n=3; type: protein-complex assay, Sus scrofa
[2] = target: Glutamate [NMDA] receptor; experiment: Mean inhibitory concentration against [3H]ifenprodil binding to porcine N-methyl-D-aspartate (NMDA) glutamate receptor; n=3; type: protein-complex assay, Sus scrofa
[3] = target: Glutamate [NMDA] receptor; experiment: Mean inhibitory concentration against [3H]MK-801 binding to porcine N-methyl-D-aspartate (NMDA) glutamate receptor; n=3; type: protein-complex assay, Sus scrofa
[4] = target: Glutamate NMDA receptor; Grin1/Grin2a (Rattus norvegicus, UniProt P35439+Q00959); experiment: Mean inhibitory concentration against rat N-methyl-D-aspartate (NMDA) glutamate receptor 1a/2A expressed in Xenopus oocytes; type: cell-based, Oocyte
Sequence of Glutamate NMDA receptor; Grin1/Grin2a (Q00959 whole entry, other chains not shown): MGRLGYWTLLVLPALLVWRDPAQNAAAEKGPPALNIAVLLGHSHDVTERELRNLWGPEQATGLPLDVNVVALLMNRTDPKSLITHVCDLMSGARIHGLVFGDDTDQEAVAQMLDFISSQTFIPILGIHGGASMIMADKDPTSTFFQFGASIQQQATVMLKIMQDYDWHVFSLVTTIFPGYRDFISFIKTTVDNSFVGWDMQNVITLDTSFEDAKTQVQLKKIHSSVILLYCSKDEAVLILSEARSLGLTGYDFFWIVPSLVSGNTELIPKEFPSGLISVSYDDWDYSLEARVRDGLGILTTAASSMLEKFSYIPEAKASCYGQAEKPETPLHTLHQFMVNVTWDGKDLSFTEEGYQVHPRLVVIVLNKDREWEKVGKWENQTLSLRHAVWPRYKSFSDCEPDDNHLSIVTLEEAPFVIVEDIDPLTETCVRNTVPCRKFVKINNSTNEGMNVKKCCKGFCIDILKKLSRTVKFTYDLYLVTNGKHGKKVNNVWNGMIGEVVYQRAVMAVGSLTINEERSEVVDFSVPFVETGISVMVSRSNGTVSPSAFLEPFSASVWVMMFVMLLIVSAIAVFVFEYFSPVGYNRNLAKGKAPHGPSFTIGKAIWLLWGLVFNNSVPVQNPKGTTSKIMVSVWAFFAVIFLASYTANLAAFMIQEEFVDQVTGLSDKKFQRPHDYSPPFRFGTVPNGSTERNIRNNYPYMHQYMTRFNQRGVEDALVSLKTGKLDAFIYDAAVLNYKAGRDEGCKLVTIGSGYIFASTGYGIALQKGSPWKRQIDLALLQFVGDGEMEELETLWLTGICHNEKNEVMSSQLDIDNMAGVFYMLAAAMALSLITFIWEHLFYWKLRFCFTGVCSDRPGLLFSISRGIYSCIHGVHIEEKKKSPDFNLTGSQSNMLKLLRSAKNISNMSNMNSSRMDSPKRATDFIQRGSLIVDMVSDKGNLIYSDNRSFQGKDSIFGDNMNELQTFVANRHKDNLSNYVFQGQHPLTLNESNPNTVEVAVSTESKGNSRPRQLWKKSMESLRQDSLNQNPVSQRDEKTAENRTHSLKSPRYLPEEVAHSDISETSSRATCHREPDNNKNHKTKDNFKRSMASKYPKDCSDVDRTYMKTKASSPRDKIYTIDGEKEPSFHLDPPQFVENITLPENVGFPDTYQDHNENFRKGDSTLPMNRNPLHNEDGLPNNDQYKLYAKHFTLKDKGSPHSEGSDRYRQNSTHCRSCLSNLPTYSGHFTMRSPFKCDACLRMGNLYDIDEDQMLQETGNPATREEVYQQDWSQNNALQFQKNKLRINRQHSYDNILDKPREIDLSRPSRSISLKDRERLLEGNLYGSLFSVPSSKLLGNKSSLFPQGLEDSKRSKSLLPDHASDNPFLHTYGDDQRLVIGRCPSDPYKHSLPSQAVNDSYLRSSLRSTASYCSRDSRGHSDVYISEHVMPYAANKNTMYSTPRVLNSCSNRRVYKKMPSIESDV

[5] = target: Glutamate NMDA receptor; Grin1/Grin2b (Rattus norvegicus, UniProt P35439+Q00960); experiment: Mean inhibitory concentration against rat N-methyl-D-aspartate (NMDA) glutamate receptor 1a/2B expressed in Xenopus oocytes; type: cell-based, Oocyte
Sequence of Glutamate NMDA receptor; Grin1/Grin2b (Q00960 whole entry, other chains not shown): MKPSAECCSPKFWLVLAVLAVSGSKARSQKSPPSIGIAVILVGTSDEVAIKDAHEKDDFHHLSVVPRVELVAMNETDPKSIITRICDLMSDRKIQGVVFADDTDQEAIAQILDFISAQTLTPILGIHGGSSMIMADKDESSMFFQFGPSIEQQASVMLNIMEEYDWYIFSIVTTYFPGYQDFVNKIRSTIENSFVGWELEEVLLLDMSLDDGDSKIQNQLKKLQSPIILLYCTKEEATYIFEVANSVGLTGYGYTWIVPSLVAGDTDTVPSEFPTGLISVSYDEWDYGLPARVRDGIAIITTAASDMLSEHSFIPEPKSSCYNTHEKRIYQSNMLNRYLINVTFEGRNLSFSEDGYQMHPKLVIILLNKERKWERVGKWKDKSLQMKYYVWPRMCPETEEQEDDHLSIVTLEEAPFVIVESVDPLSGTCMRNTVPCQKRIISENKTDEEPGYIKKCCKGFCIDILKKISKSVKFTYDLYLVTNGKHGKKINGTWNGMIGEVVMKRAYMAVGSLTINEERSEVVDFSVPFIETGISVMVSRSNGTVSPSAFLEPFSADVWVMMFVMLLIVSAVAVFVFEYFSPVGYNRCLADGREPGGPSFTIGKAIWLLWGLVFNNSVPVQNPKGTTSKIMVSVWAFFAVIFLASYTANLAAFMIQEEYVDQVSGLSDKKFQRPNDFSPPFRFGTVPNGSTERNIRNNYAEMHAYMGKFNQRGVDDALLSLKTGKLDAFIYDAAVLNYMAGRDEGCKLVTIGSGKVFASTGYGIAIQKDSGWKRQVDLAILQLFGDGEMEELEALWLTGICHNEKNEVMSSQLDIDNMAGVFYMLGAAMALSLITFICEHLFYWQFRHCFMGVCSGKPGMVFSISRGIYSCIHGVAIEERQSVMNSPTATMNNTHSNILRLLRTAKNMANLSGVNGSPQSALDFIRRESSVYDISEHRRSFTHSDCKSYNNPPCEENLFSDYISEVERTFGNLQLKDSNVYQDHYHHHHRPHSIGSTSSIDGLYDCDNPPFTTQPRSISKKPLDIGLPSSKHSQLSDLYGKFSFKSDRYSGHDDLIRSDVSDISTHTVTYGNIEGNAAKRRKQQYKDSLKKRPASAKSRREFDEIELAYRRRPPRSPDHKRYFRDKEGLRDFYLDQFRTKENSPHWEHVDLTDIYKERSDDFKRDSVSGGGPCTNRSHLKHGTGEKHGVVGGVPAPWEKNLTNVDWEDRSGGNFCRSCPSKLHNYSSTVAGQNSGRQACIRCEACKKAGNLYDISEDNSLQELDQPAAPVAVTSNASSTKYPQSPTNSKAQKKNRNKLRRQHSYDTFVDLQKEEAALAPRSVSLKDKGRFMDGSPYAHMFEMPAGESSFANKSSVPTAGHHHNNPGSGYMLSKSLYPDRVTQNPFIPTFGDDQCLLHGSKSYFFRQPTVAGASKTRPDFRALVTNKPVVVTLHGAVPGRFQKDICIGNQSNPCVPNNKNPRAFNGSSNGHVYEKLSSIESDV

[6] = target: Glutamate NMDA receptor; Grin1/Grin2c (Rattus norvegicus, UniProt P35439+Q00961); experiment: Mean inhibitory concentration against rat N-methyl-D-aspartate (NMDA) glutamate receptor 1a/2C expressed in Xenopus oocytes; type: cell-based, Oocyte
Sequence of Glutamate NMDA receptor; Grin1/Grin2c (Q00961 whole entry, other chains not shown): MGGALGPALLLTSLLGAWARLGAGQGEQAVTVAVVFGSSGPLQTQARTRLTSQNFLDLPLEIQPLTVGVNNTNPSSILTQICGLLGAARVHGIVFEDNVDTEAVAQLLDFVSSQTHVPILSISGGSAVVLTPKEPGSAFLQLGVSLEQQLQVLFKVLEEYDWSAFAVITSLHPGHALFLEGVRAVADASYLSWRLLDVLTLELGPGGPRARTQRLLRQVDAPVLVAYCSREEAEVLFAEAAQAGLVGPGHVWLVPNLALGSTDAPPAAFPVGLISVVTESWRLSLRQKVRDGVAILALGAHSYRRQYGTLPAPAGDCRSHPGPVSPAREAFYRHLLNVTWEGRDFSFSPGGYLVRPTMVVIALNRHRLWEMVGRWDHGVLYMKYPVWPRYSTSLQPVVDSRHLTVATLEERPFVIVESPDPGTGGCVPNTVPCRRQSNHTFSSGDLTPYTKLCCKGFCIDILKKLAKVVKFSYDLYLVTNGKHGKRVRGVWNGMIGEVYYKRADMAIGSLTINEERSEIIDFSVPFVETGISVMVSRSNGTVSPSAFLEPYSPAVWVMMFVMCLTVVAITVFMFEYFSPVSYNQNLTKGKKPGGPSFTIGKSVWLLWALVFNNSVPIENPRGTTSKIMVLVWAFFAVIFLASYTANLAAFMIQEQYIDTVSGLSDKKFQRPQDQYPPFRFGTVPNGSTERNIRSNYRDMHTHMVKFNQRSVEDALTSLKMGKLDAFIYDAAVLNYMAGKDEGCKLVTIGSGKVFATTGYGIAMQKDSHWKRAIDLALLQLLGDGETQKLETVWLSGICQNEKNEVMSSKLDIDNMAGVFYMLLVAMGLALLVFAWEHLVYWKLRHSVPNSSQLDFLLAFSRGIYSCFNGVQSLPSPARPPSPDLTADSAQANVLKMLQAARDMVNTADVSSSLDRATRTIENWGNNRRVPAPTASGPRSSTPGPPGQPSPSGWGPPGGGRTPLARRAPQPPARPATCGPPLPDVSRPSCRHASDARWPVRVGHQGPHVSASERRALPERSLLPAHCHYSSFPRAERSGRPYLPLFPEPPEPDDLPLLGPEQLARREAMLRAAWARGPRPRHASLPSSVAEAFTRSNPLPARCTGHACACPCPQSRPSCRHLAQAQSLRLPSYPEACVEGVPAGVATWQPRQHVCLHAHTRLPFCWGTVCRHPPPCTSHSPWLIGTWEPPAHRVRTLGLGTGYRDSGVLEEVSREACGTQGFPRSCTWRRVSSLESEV

[7] = Mean inhibitory concentration against rat N-methyl-D-aspartate (NMDA) glutamate receptor 1a/2D expressed in Xenopus oocytes; type: cell-based; details: oocyte
[8] = target: Glutamate [NMDA] receptor; experiment: Mean inhibitory concentration against [3H]ifenprodil binding to porcine N-methyl-D-aspartate (NMDA) glutamate receptor; n=1; type: protein-complex assay, Sus scrofa
[9] = target: Glutamate [NMDA] receptor; experiment: Mean inhibitory constant against porcine N-methyl-D-aspartate (NMDA) glutamate receptor; n=1; type: protein-complex assay, Sus scrofa
[10] = target: Glutamate [NMDA] receptor (Homo sapiens) (UniProt Q05586+Q12879+Q13224+O15399+O60391+Q14957+Q8TCU5); experiment: Specific binding of [3H]ifenprodil to N-methyl-D-aspartate (NMDA) glutamate receptor remaining in presence of 100 uM inhibitor; type: protein-complex assay; details: Sus scrofa

Structure (SMILES) | Ki [1] [µM] | IC50 [2] [µM] | IC50 [3] [µM] | IC50 [4] [µM] | IC50 [5] [µM] | IC50 [6] [µM] | IC50 [7] [µM] | IC50 [8] [µM] | Ki [9] [µM] | Binding [10] [%]
COc1ccc([C@@H](O)C[C@H]2c3cc(OC)c(OC)cc3CCN2C)cc1 | 2.7 | 0.24 | 4.6 | 107 | 3.16 | 155 | 341 |  |  | 
COc1cc2c(cc1OC)[C@@H](C[C@@H](O)c1ccc(Cl)cc1)N(C)CC2 | 0.007 | 100 | 56 |  |  |  |  |  |  | 
COc1cc2c(cc1OC)[C@H](C[C@H](O)c1ccc(Cl)cc1)NCC2 | 0.92 | 1.1 | 7.4 | 104 | 10.5 | 24.9 | 48.4 |  |  | 
COc1ccc([C@@H](O)C[C@H]2NCCc3cc(OC)c(OC)cc32)cc1 | 11 |  | 140 |  |  |  |  | 420 |  | 
COc1ccc([C@H](O)C[C@H]2c3cc(OC)c(OC)cc3CCN2C)cc1 |  |  |  |  |  |  |  |  | 22 | 34
COc1cc2c(cc1OC)[C@@H](C[C@@H](O)c1ccc(Cl)cc1)NCC2 | 0.26 |  | 37 |  |  |  |  | 290 |  | 
COc1ccc([C@H](O)C[C@@H]2NCCc3cc(OC)c(OC)cc32)cc1 | 5.8 |  | 110 |  |  |  |  | 243 |  | 
COc1cc2c(cc1OC)[C@@H](C[C@H](O)c1ccc(Cl)cc1)N(C)CC2 | 0.11 | 24 | 31 |  |  |  |  |  |  | 
COc1cc2c(cc1OC)[C@H](C[C@@H](O)c1ccc(Cl)cc1)NCC2 | 2.6 | 95 | 34 |  |  |  |  |  |  | 
COc1cc2c(cc1OC)[C@@H](C[C@H](O)c1ccc(Cl)cc1)NCC2 | 6.7 | 43 | 40 |  |  |  |  |  |  | 
COc1ccc([C@H](O)C[C@@H]2c3cc(OC)c(OC)cc3CCN2C)cc1 | 0.06 |  |  |  |  |  |  |  |  | 50
COc1ccc([C@H](O)C[C@H]2NCCc3cc(OC)c(OC)cc32)cc1 | 0.72 |  | 120 |  |  |  |  |  |  | 63
COc1ccc([C@@H](O)C[C@@H]2NCCc3cc(OC)c(OC)cc32)cc1 |  | 14 | 29 |  |  |  |  |  |  | 
COc1cc2c(cc1OC)[C@H](C[C@@H](O)c1ccc(Cl)cc1)N(C)CC2 | 2.7 | 52 | 45 |  |  |  |  |  |  | 
COc1ccc([C@@H](O)C[C@@H]2c3cc(OC)c(OC)cc3CCN2C)cc1 | 0.38 |  | 120 |  |  |  |  |  |  | 87
COc1cc2c(cc1OC)[C@H](C[C@H](O)c1ccc(Cl)cc1)N(C)CC2 | 0.5 | 0.059 | 0.96 | 137 | 1.32 | 5.29 | 27.5 |  |  | 
